From article PMC4496362, “Potentiating the cellular targeting and anti-tumor activity of Dp44mT via binding to human serum albumin: two saturable mechanisms of Dp44mT uptake by cells” (Oncotarget, 2015)

How the values were obtained:
Type in all cases: binding
Conditions in all cases: read-out: % released into dialysate
[1] = molecular target: T1, human serum albumin (HSA) (Homo sapiens, UniProt P02768); assay: equilibrium dialysis with […]-ligand; Trp-214 fluorescence quenching
T1 construct: gene ALB

[2] = molecular target: T2, bovine serum albumin (BSA) (Bos taurus, UniProt P02769); assay: equilibrium dialysis with […]-ligand (weak retention)
T2 construct: gene ALB

[3] = molecular target: T2, bovine serum albumin (BSA); assay: equilibrium dialysis with […]-ligand

T2 sequence (P02769 25-607): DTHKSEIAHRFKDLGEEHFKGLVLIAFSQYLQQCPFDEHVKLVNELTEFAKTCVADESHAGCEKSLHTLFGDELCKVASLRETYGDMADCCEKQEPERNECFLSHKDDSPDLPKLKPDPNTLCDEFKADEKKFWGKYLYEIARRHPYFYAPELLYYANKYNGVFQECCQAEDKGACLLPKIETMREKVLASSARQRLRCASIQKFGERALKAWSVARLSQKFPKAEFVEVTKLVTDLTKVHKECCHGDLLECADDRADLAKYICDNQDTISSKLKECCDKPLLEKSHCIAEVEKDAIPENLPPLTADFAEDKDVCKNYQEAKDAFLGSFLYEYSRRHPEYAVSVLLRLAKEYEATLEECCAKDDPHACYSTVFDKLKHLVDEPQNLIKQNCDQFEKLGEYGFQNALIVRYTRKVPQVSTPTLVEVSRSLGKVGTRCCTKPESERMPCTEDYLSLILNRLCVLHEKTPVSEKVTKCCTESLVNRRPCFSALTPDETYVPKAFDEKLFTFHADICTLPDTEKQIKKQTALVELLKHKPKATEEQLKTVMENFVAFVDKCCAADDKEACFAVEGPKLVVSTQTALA
T1 sequence (P02768 25-609): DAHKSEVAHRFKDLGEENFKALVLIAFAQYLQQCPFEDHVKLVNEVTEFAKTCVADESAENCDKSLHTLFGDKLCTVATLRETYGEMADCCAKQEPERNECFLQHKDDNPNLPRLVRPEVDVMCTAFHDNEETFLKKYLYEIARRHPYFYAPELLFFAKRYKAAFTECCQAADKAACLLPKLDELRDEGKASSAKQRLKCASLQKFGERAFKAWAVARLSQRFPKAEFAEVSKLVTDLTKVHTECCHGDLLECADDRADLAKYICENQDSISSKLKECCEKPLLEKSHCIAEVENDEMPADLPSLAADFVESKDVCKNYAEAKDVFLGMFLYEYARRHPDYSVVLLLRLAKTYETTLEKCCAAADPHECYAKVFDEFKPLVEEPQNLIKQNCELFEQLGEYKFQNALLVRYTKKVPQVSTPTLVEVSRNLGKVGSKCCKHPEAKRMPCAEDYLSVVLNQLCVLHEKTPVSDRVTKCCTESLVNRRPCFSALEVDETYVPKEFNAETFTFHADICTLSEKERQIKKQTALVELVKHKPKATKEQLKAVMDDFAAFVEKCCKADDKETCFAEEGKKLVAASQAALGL

| SMILES | fraction unbound [1] | fraction unbound [2] | fraction unbound [3] |
| --- | --- | --- | --- |
| Cc1ncc(CO)c(C=NNC(=O)c2ccncc2)c1O [PIH, pyridoxal isonicotinoyl hydrazone] | 0.06 ± 0.003 | 0.39 ± 0.003 | – |
| CCNC(=S)N/N=C(\c1ccccc1)c1ccccn1 [Bp4eT, 2-benzoylpyridine 4-ethyl-3-thiosemicarbazone] | 0.04 ± 0.003 | – | 0.09 ± 0.003 |
| CN(C)C(=S)NN=C(c1ccccn1)c1ccccn1 [Dp44mT, di-2-pyridylketone 4,4-dimethyl-3-thiosemicarbazone] | 0.22 ± 0.01 | – | 0.21 ± 0.005 |
